Earlier results, collected in paper PMC5559489 (Scientific Reports, 2017).

Columns and labels:
[1] = test system: A(H1N1)pdm09 isolates containing NA H275Y and I223R; conditions: cited from earlier work
[2] = test system: A(H1N1)pdm2009 clinical isolates with H275Y mutation; conditions: cited from earlier work

CCOC(=O)C1=C[C@@H](OC(CC)CC)[C@H](NC(C)=O)[C@@H](N)C1 [oseltamivir, Oseltamivir]
decreased susceptibility to oseltamivir [1]: 246 fold
decrease of sensitivity compared to wild-type [2]: 1466 fold
